Measured values reported in article PMC4552634, “A New Set of Chemical Starting Points with Plasmodium falciparum Transmission-Blocking Potential for Antimalarial Drug Discovery” (PLoS ONE, 2015).
pIC50: −log10 of the molar value. Where two headings read alike, the source gives them in different places.

What was measured:
[1] = test system: luciferase reaction (BacTiter-Glo); assay: Interference assay (inhibition of the BacTiter-Glo luciferase reaction); assay type: biochemical; parameters: concentration or dose not given beside the values; settings: ATP interference assay
Procedure: To discard possible false-positive results, we performed an interference assay in parallel. […] […]. The ATP solution was made by dissolving ATP powder (ATP standard from the ATPlite 1 step assay kit, reference 6016731, Perkin Elmer) in culture medium. The positive control used was the Luciferase Inhibitor I Calbiochem (Merck, 119113) at 100 μM.

HepG2 cells = assay: Cytotoxicity in HepG2 cells (intracellular ATP, ATPlite, 48 h); assay type: cell-based, human; settings: HepG2 cells; IC50 per ratio column head; unit inferred
[2] = test system: P. falciparum stage V gametocytes; assay: Gametocytocidal ATP bioluminescence assay (single point 5 μM and 1 μM, dose-response); assay type: cell-based, Plasmodium falciparum; settings: for Ratio IC50 HepG2/IC50 P. falciparum: IC50 HepG2 divided by IC50 P. falciparum gametocytes; for IC50: P. falciparum gametocytes, average, read-out: IC50 Pf Gametocytes average, IC50 (µM) average; for pIC50: sexual stages (gametocytes), dose-response, read-out: IC50 sexual
[3] = test system: P. falciparum asexual stages; settings: asexual stages; TCAMS data; read-out: IC50 asexual; cited from earlier work

| % Control luminiscence [1] [%] | Compound | pIC50 (HepG2 cells) | Ratio IC50 HepG2/IC50 P. falciparum [2] | IC50 [2] [µM] | pIC50 [3] | pIC50 [2] |
| --- | --- | --- | --- | --- | --- | --- |
| 100 | CN(C)S(=O)(=O)c1cc(-c2ccc3nccc(-c4cccc(S(N)(=O)=O)c4)c3c2)cnc1N [TCMDC-134230] | 4.83 | <1.5 | > 10 | 6.60 |  |
| 100 | Nc1ncc(-c2ccc3nccc(-c4ccncc4)c3c2)cc1S(=O)(=O)N1CCCCC1 [TCMDC-134265] | < 4.60 | >12 | 2.07 | 6.24 | 5.68 |
| 100 | COc1ccc(-c2cnn3ccc(Nc4cc(OC)c(OC)c(OC)c4)nc23)cc1OC [TCMDC-134383] | 4.89 | 8 | 1.62 | 6.19 | 5.79 |
| 100 | COc1ccc2nc(-c3cccc(C)n3)nc(Nc3ccncc3)c2c1 [TCMDC-134670] | < 4.60 |  | 2.51 | 6.17 |  |
| 97 | COCCn1c(-c2cccc(Cl)c2)nn(-c2ccc([N+](=O)[O-])cc2C#N)c1=S [TCMDC-134719] | < 4.60 | >9 | 2.78 | 6.75 | 5.56 |
| 100 | CC(C)(C)OC(=O)NCc1ccc(Nc2nnc(-c3ccc(OCC(=O)NCc4ccc(C(C)(C)C)cc4)c([N+](=O)[O-])c3)o2)cc1 [TCMDC-134991] | 5.50 | 4.5 | 0.7 | 6.10 |  |
| 98 | Fc1ccc(OC2CN(c3nccc(NCc4ccccc4Cl)n3)C2)cc1 [TCMDC-135110] | < 4.60 | >10 | 2.51 | 6.05 | 5.60 |
| 95 | CN1CCN(CC2(Nc3nccc(NCCc4cn(C)c5ccccc45)n3)CCCCC2)CC1 [TCMDC-135122] | 5.16 | 10 | 0.7 | 5.74 | 6.16 |
| 99 | Cc1occc1C(=O)Nc1nc(-c2ccccn2)nc2ccsc12 [TCMDC-135244] | > 5.81 | <5 | 0.3 | 6.05 | 6.52 |
| 98 | Cc1cccc(-c2nc(Nc3ccncc3)c3cc(N(C)C)ccc3n2)n1 [TCMDC-135308] | < 4.60 | >9 | 2.66 | 6.15 |  |
| 100 | COc1cc(NC(=O)c2sc(-c3ccc(Cl)cc3)cc2NC(=O)c2ccncc2)ccc1OCCN1CCCC1 [TCMDC-135398] | 5.49 |  | 0.15 | 7.51 |  |
| 100 | CCN(CC)CCCNc1nccc(N2CCc3ncnc(Nc4ccc(OCc5cccc(F)c5)c(Cl)c4)c3C2)n1 [TCMDC-135406] | 5.25 | 8 | 0.72 | 6.95 | 6.15 |
| 98 | CNCCNc1nccc(N2CCc3ncnc(Nc4ccc(OCc5cccc(F)c5)c(Cl)c4)c3C2)n1 [TCMDC-135478] | 5.15 | 11 | 0.67 | 6.71 | 6.18 |
| 93 | COC(=O)c1sc(-c2ccc(Cl)cc2)cc1N(CCCN1CCC(N2CCCCC2)CC1)S(=O)(=O)c1ccc(C)cc1 [TCMDC-135561] | 5.36 | 1.3 | 3.36 | 6.13 | 5.47 |
| 100 | c1ccc2c(C3CCN(CCCCOc4ccc5c(c4)CCN(CC4CC4)CC5)CC3)c[nH]c2c1 [TCMDC-136244] | 5.17 | 10 | 0.71 | 6.01 |  |
| 100 | C[C@H]1CN(Cc2cccc(-c3cc(CNC(=O)c4cccc(CC5CCN(C)CC5)c4)ccc3F)c2)CCN1C [TCMDC-136349] | 5.16 | 8 | 0.85 | 5.96 |  |
| 100 | CN(C)Cc1ccc(-c2cccc(Nc3nccc(NCC(O)c4ccccc4)n3)c2)cc1 (stereo not drawn) [TCMDC-136467] | 5.23 | 6.52 | 0.9 | 6.43 |  |
| 97 | Cc1cc(OCCN2CCCCC2)ccc1NC(=O)c1cccc2c(=O)n(Cc3ccc(Cl)cc3)cnc12 [TCMDC-136727] | 5.33 | 5 | 0.95 | 5.98 |  |

| % Control luminiscence [1] [%] | Compound | pIC50 (HepG2 cells) | Ratio IC50 HepG2/IC50 P. falciparum [2] | IC50 [2] [µM] | pIC50 [3] | pIC50 [2] |
| --- | --- | --- | --- | --- | --- | --- |
| 85 | COc1cc2c(cc1CCNCCCCNCCc1cc3c(cc1OC)CCCC3)CCCC2 [TCMDC-137319] | > 5.81 | <19 | 0.08 | 6.00 | 7.08 |
| 100 | C=CCNC(CCCCC)c1ccc(OCCOc2ccc(C(CCCCC)NCC=C)cc2)cc1 (stereo not drawn) [TCMDC-137483] | 5.24 | 6.41 | 0.91 | 6.25 | 6.04 |
| 100 | CCCCC(NCC)c1ccc(OCCOc2ccc(C(CCCC)NCC)cc2)cc1 (stereo not drawn) [TCMDC-137612] | 5.21 | 14 | 0.42 | 6.03 | 6.37 |
| 100 | CCCCCCC(N)c1ccc(OCCCOc2ccc(C(N)CCCCCC)cc2)cc1 (stereo not drawn) [TCMDC-137621] | 5.72 | 36 | 0.0533 | 5.94 | 7.28 |
| 91 | COc1ccc(CNCCCCCCNCc2ccc(OC)c3ccccc23)c2ccccc12 [TCMDC-137631] | 5.51 | 6 | 0.51 | 6.24 | 6.30 |
| 100 | CN1CCN(CCNc2c3ccccc3nc3c2ccc2ccccc23)CC1 [TCMDC-137723] | 5.18 | 17 | 0.39 | 6.22 | 6.41 |
| 100 | c1cc(C2=NC3CCCCC3N2)ccc1OCCCCCOc1ccc(C2=NC3CCCCC3N2)cc1 (stereo not drawn) [TCMDC-137802] | 5.43 | 13 | 0.28 | 6.64 |  |
| 100 | CN(CCCNCc1cccc2ccccc12)CCCNCc1cccc2ccccc12 [TCMDC-137905] | 5.24 | 25 | 0.23 | 6.14 |  |
| 100 | CN(CCCNCc1ccc2ccccc2c1)CCCNCc1ccc2ccccc2c1 [TCMDC-137908] | 5.33 | 94 | 0.05 | 6.41 |  |
| 100 | CCCOc1ccc(CCNCCCCNCCc2ccc(OCCC)c3ccccc23)c2ccccc12 [TCMDC-137952] | 5.59 | 31 | 0.08 | 6.04 | 7.08 |
| 95 | COc1ccc(CCNCCCCNCCc2ccc(OC)c3ccccc23)c2ccccc12 [TCMDC-137961] | 5.50 | <0.6 | > 5 | 6.34 |  |
| 94 | CCOCn1c(-c2ccccc2)cc2c3c(N)nc(N)nc3ccc21 [TCMDC-137979] | 5.25 | 4.35 | 1.3 | 6.73 |  |
| 100 | Cc1ccc(C(=O)Nc2ccc(Nc3ccnc4cc(-c5ccccn5)ccc34)cc2O)cc1 [TCMDC-138205] | 5.51 | 6.48 | 0.48 | 6.95 |  |
| 100 | CN(C)CCNCc1cccc(-c2ccc3c(Nc4ccc(Oc5ccccn5)cc4)ccnc3c2)c1 [TCMDC-138493] | 5.35 | 20 | 0.22 | 6.63 |  |
| 98 | CS(=O)(=O)CCNCc1nc(-c2ccc3c(=O)[nH]cnc3c2)cs1 [TCMDC-138539] | 5.38 | 1.57 | 2.68 | 5.99 |  |
| 100 | CN1CCN(CCCNCc2cccc(Nc3nccc(Nc4ccc(Oc5ccccc5)cc4)n3)c2)CC1 [TCMDC-138616] | 5.29 | 16 | 0.32 | 6.12 |  |
| 97 | O=C(NCCCCN1CCC(c2ccc3c(c2OCCO)CCCC3)CC1)c1ccc2oc(-c3ccc(C(F)(F)F)cc3)cc2c1 [TCMDC-138771] | 5.18 | 10 | 0.63 | 6.47 |  |

| Compound | % Control luminiscence [1] [%] | pIC50 (HepG2 cells) | Ratio IC50 HepG2/IC50 P. falciparum [2] | IC50 [2] [µM] | pIC50 [3] | pIC50 [2] |
| --- | --- | --- | --- | --- | --- | --- |
| Nc1nc(N)c2c(ccc3c2ccn3Cc2ccc(-c3ccccc3)cc2)n1 [TCMDC-137813] | 100 | 5.80 | 1.1 | 1.45 | 7.32 | 5.84 |
